# Laboratory results reported in patent US9421249B2, “Methods to activate or block the HLA-E/Qa-1 restricted CD8+ T cell regulatory pathway to treat immunological disease” (THE TRUSTEES OF COLUMBIA UNIVERSITY IN THE CITY OF NEW YORK, priority 2007, dated 2016).
# Where no end group is shown, it is not given here.
# Tests used:
# [1] = system: Qa-1; test: Qa-1 binding assay (stabilization of Qa-1a surface expression on 3F4 transfectants, FACS); design: species or system murine; settings: 3F4 cells, peptide 50 μM, 26° C., approximately 18 hours
# Protocol: The capacity of the peptides to bind to Qa-1 was first assessed by their ability to stabilize Qa-1 surface expression on 3F4 cells. The 3F4 cells were incubated at 26° C. for approximately 18 hours with Hsp60sp or Qdm peptides and a Qa-1 non-binding peptide HEL 74-96 served as control peptide (12, 14 and 17). As shown by FIG. 6, the binding of exogenous peptide at 26° C. causes a shift in the intensity of Qa-1a surface staining analyzed by FACS.
# Selected Qa-1a-PcDNA3.1 positive transfectants detected by RT-PCR were assayed for their Qa-1 surface expression after loading with known Qa-1 binding peptides. In brief, Qa-1a transfectants were incubated at 26° C. for approximately 18 hours with Hsp60sp or Qdm peptides (10, 12 and 17). The surface expression of Qa-1a was assessed by staining with anti-Qa-1a sera followed by Phycoerythorine (PE)-goat anti-mouse Ig, analyzed on a FACScan flow cytometer and CellQuest™ software (Becton Dickinson, Mountain View, Calif.)(1). All peptides were used at 50 μM unless specifically indicated.
# [2] = system: CD94/NKG2A; test: NK assay with peptide-loaded 3F4 cells; assay type: cell-based; settings: 3F4 cells loaded with peptide at 26° C. overnight; mouse NK cells 2 hrs
# Source text: Since a significant number of murine CD8+ T cells express CD94/NKG2A, it was investigated whether Qa-1/Hsp60sp generated in activated murine T cells is capable of interacting with CD94/NKG2A in a functional NK assay. […] This is also compatible with the notion that two types of Qa-1/HLA-E binding peptides could be distinguished by their ability of interact with CD94/NKG2A in both humans (14) and mice.
# NK cell lines are routinely established from B10PL mice (24). Unlabeled 3F4 cells were loaded with test peptides at 26° C. overnight and mixed with an equal number of CFSE labeled human EBV transformed LCL cells which are not susceptible to the killing by mouse NK cells. Graded numbers of mouse NK cells were added to the mixture of 3F4 and LCL cells and further incubated at 37° C. for 2 hrs. 3F4 cells, which were not loaded with peptides or loaded with non-Qa-1 binding peptides served as controls. The cell mixtures were then stained with anti mouse H-2^U mAb 3-8-3P-PE to distinguish NK cells from target cells. The change in the ratio of 3F4 to LCL cells in the presence or absence of NK cells in each group detected by FACS (1) reflects the specific NK killing: % specific killing={[the killing ratio in control wells (without NK)−the killing ratio in experimental wells (with NK)]/the killing ratio of control wells}×100%.
# [3] = system: Qa-1/HLA-E; settings: cited from earlier work
# [4] = system: EAE in B10PL mice; test: Peptide vaccination in EAE model; assay type: in vivo; settings: B10PL mice immunized subcutaneously with antigen emulsified with IFA; compared with IFA alone
# Source text: B10PL mice were vaccinated with either 1-9NacMBP, a MHC Class II biding peptide derived from MBP or p277, a MHC Class II biding peptide derived from Hsp60. In this regard, it is well known that 1-9NacMBP is a pathogenic peptide in B10PL mice and p277 may be involved in the pathogenesis of T1D in certain mouse strains (174) but irrelevant to EAE.
# [5] = system: T1D in NOD mice; test: Peptide vaccination in spontaneous T1D model; settings: NOD mice immunized subcutaneously with antigen emulsified with IFA; compared with IFA alone
# Protocol: In the standard protocol used throughout this study female 8-10 weeks old B10PL or 3-4 weeks old NOD mice were immunized subcutaneously with 1-9Nac MBP or p277 emulsified with IFA at 100 uM/mouse as described. EAE was induced at least one week after peptide vaccination. CD8+ T cells were purified from spleens and draining lymph nodes of peptide vaccination protected EAE/B10PL mice or T1D/NOD mice by positive selection with CD8 MACS magnetic beads (Miltenyibiotec, Inc. Auburn Calif.). The purity of CD8+ T cells is routinely >95%.
# The effect of peptide vaccination or adoptive transfer of CD8+ T cells was evaluated by assessing the clinical EAE (181) or T1D in the recipient mice.
# [6] = system: Qa-1; test: Peptide competition assay (functional NK assay); assay type: cell-based, murine; settings: Qdm 20 μM; competing peptide 50, 100, 200 μM; 18 hrs at 26° C.; E/T ratio 2:1
# Protocol: The ability of the Hsp60sp to compete with Qdm for binding to Qa-1 was further tested in a functional NK assay.
# Competing peptides (Hsp60sp or control non-Qa-1 binding peptide) at 50, 100, 200 μM were added to the 3F4 cells, together with 20 μM Qdm for 18 hrs at 26° C. (14). Equal numbers of CFSE labeled LCL cells were mixed with 3F4 cells and NK cells were then added into the mixture of peptide loaded 3F4 cells and LCL cells. The percent NK killing of 3F4 cells was evaluated.
# [7] = system: HLA-E restricted CD8+ T cells; test: CD8+ T cell inhibition CFSE assay on HLA-E transfectants loaded with peptide; assay type: cell-based, human
# Source text: Data obtained in human studies support the concept established in the murine studies.
# To test if HLA-E restricted CD8+ T cells also play a similar role in the control of human T1D, the function of CD8+ T cells in freshly isolated PBMC from T1D patients was first tested. For this purpose two assays were employed. The first is a standard T cell proliferation assay measuring self non-self discrimination, comparing the overall immune responses of human PBMC to self versus foreign antigens in the presence or absence of CD8+ T cells. Thus, intact PBMC populations or purified CD4+ T cells were cultured with varying doses of the self-antigen GAD or foreign antigen TT. Comparing PBMC with purified CD4+ T cells could not alone definitively pinpoint the function of the CD8+ T cells contained in the PBMC. […] This is the case in testing the function of CD8+ T cells in T1D patients combined with the CD8+ T cell inhibition CFSE assay, which can be applied as a relative simple and feasible clinical test. […] We then proceeded to further identify the specificity of the CD8+ T cells. Thus, purified CD8+ T cells from T1D patients were tested on HLA-E transfectant H3B2 cells loaded with Hsp60sp. H3B2 loaded with B7sp or non-HLA-E binding peptide served as controls.
# CD8+ T cells were in vitro primed with DCs loaded with either Hsp60sp [CD8(H)], or B7sp [CD8(B)] and tested for their specificity and the function of self-nonself discrimination using the two assays described above. […] To verify the restored function of the CD8+ T cells, these CD8+ T cell lines were also tested in a CFSE assay on HLA-E transfectant H3B2 cells loaded with Hsp60sp. A CD8(B) line from each patient served as control. […] This phenomenon has been observed in about 60% of the 10 total T1D patients tested to date.
# [8] = target: CD94/NKG2A (Homo sapiens, UniProt P26715+Q13241); settings: cited from earlier work
# CD94/NKG2A (Homo sapiens, UniProt P26715+Q13241), sequence (Q13241 whole entry): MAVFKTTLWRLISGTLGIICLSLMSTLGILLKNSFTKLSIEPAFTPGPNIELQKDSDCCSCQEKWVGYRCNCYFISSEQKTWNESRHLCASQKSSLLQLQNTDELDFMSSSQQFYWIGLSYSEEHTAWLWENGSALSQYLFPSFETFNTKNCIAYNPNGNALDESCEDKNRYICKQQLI
# CD94/NKG2A (Homo sapiens, UniProt P26715+Q13241), sequence (P26715 whole entry): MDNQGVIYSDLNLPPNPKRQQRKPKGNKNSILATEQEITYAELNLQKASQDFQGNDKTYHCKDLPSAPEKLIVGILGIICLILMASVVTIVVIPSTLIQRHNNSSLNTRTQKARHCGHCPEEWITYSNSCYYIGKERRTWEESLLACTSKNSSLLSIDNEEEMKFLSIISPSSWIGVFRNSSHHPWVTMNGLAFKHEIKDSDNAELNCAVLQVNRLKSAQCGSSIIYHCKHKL
# [9] = system: Qa-1 restricted CD8+ T cells; test: CD8+ T cell inhibition assay, CD8+ T cells from peptide vaccination protected mice; assay type: cell-based
# Source text: To test this hypothesis, a Qa-1a expressing cell 3F4 was used as peptide-presenting cell to determine the specificity of the CD8+ T cells isolated from either 1-9Nac MBP or p277 vaccination protected B10PL and NOD mice.
# Physiological target T cells, the intermediate avidity 1-9Nac MBP specific clone 1AE10 from B10PL mice and p277 specific clone 15A6 from NOD mice served as positive controls, and low avidity MBP specific clone 4D10 and p277 specific clone 1304 served as negative control to assess the function and the specificity of the CD8+ T cells. It is noted that “quantitative” but not “qualitative” differences between the Qa-1/Hsp60sp versus Qa-1/Qdm is a function of avidity of T cell activation which determines their susceptibility to the down-regulation by the CD8+ T.
# 3F4 cells were passively loaded with peptides overnight at 26° C. Equal number of unlabeled 3F4 cells loaded with peptides and CFSE labeled 3F4 cells that are not loaded with peptide were mixed and a graded number of CD8+ T cells were added to the targets. […] 4 days later, the cell mixtures were stained with anti-mouse CD8-PE mAb to distinguish CD8+ T cells from target cells and the CD8+ T cells were gated out during the analysis when the ratio between two types of targets were calculated. […]
# [10] = system: Qa-1 dependent CD8+ T cells; test: CD8+ T cell inhibition assay, CD8+ T cells from EAE recovered mice; assay type: cell-based; settings: CD8+ T cells isolated from EAE recovered B10PL mice
# Source text: It was next tested if Qa-1/Hsp60sp is the target for the regulatory CD8+ T cells. […] The Qa-1 expressing 3F4 cell was used as the Qa-1 peptide presenting cell to test if Hsp60sp is preferentially recognized by the regulatory CD8+ T cells in a CD8+ T cell inhibition assay. The 1-9NacMBP (myelin basic protein) specific, intermediate avidity clone 1AE10, capable of inducing EAE in vivo (8, 19) served as a positive control, and a non-encephalitogenic, low avidity clone 4D10 as well as 3F4 loaded with control non-Qa-1 binding peptide or Qdm served as negative controls. […] Thus, Hsp60sp is, indeed, a specific target recognized by the CD8+ T cells, when presented by Qa-1.
# 3F4 cells were passively loaded with peptides overnight at 26° C. Equal number of unlabeled 3F4 cells loaded with peptides and CFSE labeled 3F4 cells that are not loaded with peptide were mixed and a graded number of CD8+ T cells were added to the targets. […] The ratio between peptide-loaded (non-CFSE-labeled) 3F4 cells and non-loaded (CFSE labeled) 3F4 cells in the presence of CD8+ T cells was determined as % of specific inhibition: {[the ratio of loaded to unloaded 3F4 cells in control cultures (without CD8+ T cells)−the ratio in experimental cultures (with CD8+ T cells)]/the ratio in control cultures}×100% (1).
substance,measurement,setting,value
AMAPRTLLL [Qdm],Binding to Qa-1 (shift in intensity of Qa-1a surface staining),[1],could bind to Qa-1
same,Inhibition of NK killing of peptide-loaded 3F4 cells,[2],resistant to the NK killing
same,Binding to Qa-1,[3],binds with high affinity
AcASGLAPSGA (Ac-ASGLAPSGA; listed as Mus musculus) [1-9Nac MBP],Protection from subsequently induced EAE,[4],equally effectively protected from EAE
same,Protection from spontaneously developed T1D,[5],equally protected NOD mice from spontaneously developed T1D
HEL: conventional foreign antigen Hen Egg Lysozyme,Protection from subsequently induced EAE,[4],CD8+ T cell dependent protection from either EAE or T1D
same,Protection from spontaneously developed T1D,[5],CD8+ T cell dependent protection from either EAE or T1D
QMRPVSRAL (listed as Mus musculus) [Hsp60sp],Binding to Qa-1 (shift in intensity of Qa-1a surface staining),[1],could bind to Qa-1
same,Inhibition of NK killing of peptide-loaded 3F4 cells,[2],does not inhibit NK killing
same,Competition with Qdm for binding to Qa-1 (abrogation of Qdm protection from NK killing),[6],abrogated the protection of NK killing of 3F4 by Qdm in a dose dependent manner
same,Inhibition of H3B2 cells loaded with peptide by CD8(H),"[7]; CD8(H) line from a T1D patient, after in vitro priming with DCs loaded with Hsp60sp",specifically inhibited
same,Inhibition of H3B2 cells loaded with peptide by CD8+ T cells,[7]; CD8+ T cells from freshly isolated PBMC of T1D patients (11 total patients tested),failed to specifically inhibit
same,Inhibition of H3B2 cells loaded with peptide by CD8+ T cells,[7]; CD8+ T cells from normal controls,specifically inhibited
same,Inhibition of HLA-E transfected clones loaded with peptide by CD8(H),[7]; CD8+ T cells primed in vitro with Hsp60sp loaded dendritic cells,specifically inhibit
same,Competition with B7sp for occupancy of HLA-E,[3]; human studies,capable of competing with B7sp peptide
same,Interaction of HLA-E/peptide complex with CD94/NKG2A,[8],does not interact with CD94/NKG2A
same,Down-regulation of peptide-sensitized 3F4 cells by CD8+ T cells,[9]; CD8+ T cells from 1-9Nac MBP or p277 vaccination protected B10PL mice,efficiently down-regulated
same,Down-regulation of peptide-sensitized 3F4 cells by CD8+ T cells,[9]; CD8+ T cells from p277 or 1-9Nac MBP vaccination protected NOD mice,efficiently down-regulated
same,Susceptibility of peptide-loaded 3F4 cells to down-regulation by CD8+ T cells,[10],susceptible to the down-regulation by the CD8+ T cells
VLGGGVALLRVIPALDSLTPANED [p277],Protection from subsequently induced EAE,[4],equally effectively protected from EAE
same,Protection from spontaneously developed T1D,[5],completely protected NOD mice from spontaneously developed T1D up to 35 week's of age
